In the METLIN SMRT retention time set (Domingo-Almenara et al. 2019):

Test: gradient 5% acetonitrile 3 min, to 50% in 2 min, to 85% in 15 min, held 3 min, 100 µL/min
Settings: column: Zorbax Extend-C18 2.1 x 50 mm; eluents: water / acetonitrile, 0.1% formic acid
Procedure, shortened: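 Retention times come from adduct peaks that were picked computationally and then checked by hand. The standards, pure and pooled in mixtures of ~100 molecules, were run on a Zorbax Extend-C18 column (2.1 × 50 mm, 1.8 μm) at 100 μL/min with water and acetonitrile, each with 0.1% formic acid. Detection was by quadrupole time-of-flight mass spectrometry in positive and negative ionization mode, with a dead volume of 40 μL and a dwell volume of 900 μL.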

| RP-LC retention time [s] | SMILES |
| --- | --- |
| 926 | Cc1ccc(CN2CCN(C3CCN(S(=O)(=O)c4ccc(F)c(Cl)c4)CC3)C(=O)C2=O)cc1 |
| 568 | CN1CCC(NC(=O)c2n[nH]c3c2CN(C(=O)c2ccccc2)CC3)CC1 |
| 814 | Cc1ccc(S(=O)(=O)N2CCCC(CCC(=O)N3CCOCC3)C2)cc1 (stereo not given) |
| 790 | CCCCNC(=O)Cn1cccc(-c2nc(-c3ccc(F)cc3)no2)c1=O |
| 897 | CCn1nccc1-c1cccc(-c2noc(-c3ccccn3)n2)c1 |
| 1280 | CCN1C(=O)COc2ccc(-c3noc(-c4cccc(Br)c4)n3)cc21 |
| 726 | COc1ccc(-c2nc3cc(C)ccn3c2NC(=O)Cc2cccc3ccccc23)cc1 |
| 1220 | CC(C)(C)c1cc(N2CCN(c3ccccn3)CC2)n2ncc(-c3ccc(Cl)cc3)c2n1 |
| 735 | Cn1c(=O)c(C(=O)NCc2ccccc2)nc2cccnc21 |
| 767 | CC(C)CC(NC(=O)Cc1ccc(Cl)cc1)C(=O)Nc1nc2ccccc2[nH]1 (stereo not given) |
| 592 | COCCc1noc([C@@H]2CN(Cc3ccc4[nH]ccc4c3)C[C@H]2CO)n1 |
| 708 | CCCNC(=O)C1CCCN(c2nc3ncn(CC(=O)Nc4ccc(F)c(F)c4)c(=O)c3s2)C1 (stereo not given) |
| 1260 | O=S(=O)(c1ccc(-c2noc(-c3cccc(Cl)c3)n2)cc1)N1CCCC1 |
| 606 | CC(C)(C)c1ccc(NC(=O)NCCN2CCN(S(C)(=O)=O)CC2)cc1 |
| 654 | COc1ccc(-c2nc(C)cc(C)c2CNS(=O)(=O)c2ccc(F)cc2)cc1 |
| 847 | CCOC(=O)CNC(=O)NCC(c1ccccc1)c1c[nH]c2ccccc12 (stereo not given) |
| 794 | O=C(Nc1ccnn1Cc1cccs1)c1ccccc1Br |
| 873 | O=C(NCCc1ccco1)c1ccc2cnn(Cc3ccc(F)cc3)c2c1 |
| 778 | COc1ccc2c(CCNC(=O)c3ccc(F)cc3)c[nH]c2c1 |
| 849 | O=C(CN1C(=O)CCS(=O)(=O)c2ccccc21)Nc1cccc(C(F)(F)F)c1 |
| 981 | Cc1nc(CCNC(=O)C2CCN(S(=O)(=O)c3ccc(C4CCCCC4)cc3)CC2)cs1 |
| 770 | CCOC(=O)Cn1c(C2CC(=O)N(c3ccccc3)C2)nc2ccccc21 (stereo not given) |

| RP-LC retention time [s] | SMILES |
| --- | --- |
| 658 | CCN(CC)C(=O)C1CCCN(C(=O)c2nn(C)c3c2CN(C(=O)c2ccco2)CC3)C1 (stereo not given) |
| 706 | CCNC(=O)c1cnn(-c2cc(-c3nc(C)no3)ccn2)c1C |
| 784 | CCn1cc(-c2nc(C)c(C(=O)Nc3ccc(C)cc3)s2)c2cccnc21 |
| 803 | Cc1nnc(-c2cn(CC(=O)NCCC3=CCCCC3)c3ccccc23)o1 |
| 1220 | Cc1ccc(C)c(-c2cc3c(=O)n(Cc4nc(-c5ccccc5Br)no4)ncn3n2)c1 |
| 638 | O=C(OC1C[C@@H]2CC3C[C@@H](C1)N2CC3=O)c1c[nH]c2ccccc12 (stereo not given in full) |
| 716 | Cc1cccc(NC(=O)Nc2c(-c3cccc(C)c3)nc3ccccn23)c1 |
| 852 | COc1ccc(C)cc1NC(=O)C1CCCN(C(=O)C2Sc3ccccc3NC2=O)C1 (stereo not given) |
| 771 | COc1ccc(CNC(=O)N2C[C@@H]3CN(S(=O)(=O)c4cccc(F)c4)C[C@H](C2)O3)cc1 |
| 605 | O=C(Cn1cnc2ccccc21)NCCCn1ccc2ccccc21 |
| 494 | CCNC(=O)N1CCCC(Cc2nncn2C(C)C)C1 (stereo not given) |
| 614 | O=C(c1cccc(N2CCNC(c3ccccc3)C2)n1)N1CCSCC1 (stereo not given) |
| 876 | CN(CC1CCOCC1)S(=O)(=O)c1cccc(Cl)c1 |
| 1220 | Cc1ccc(C)c(NC(=O)C2CCCN(c3nc4c(s3)c(C)nn4-c3ccccc3)C2)c1 (stereo not given) |
| 940 | CC(C)CNC(=O)c1nc2cccnc2n(CC(C)C)c1=O |
| 901 | Cc1ccc(NC(=O)c2cc(C(C)C)n(C3CCS(=O)(=O)C3)n2)cc1 (stereo not given) |
| 765 | O=C(CN1C(=O)COc2ccc(C(=O)N3CCCC3)cc21)NCCc1ccc(Cl)cc1 |
| 682 | C=CCn1c(=O)c2ccccc2n(Cc2nc(-c3ccc(OCC)c(OC)c3)no2)c1=O |
| 835 | CN(C)C(=O)c1csc(S(=O)(=O)N2CCC(C(=O)NC3CCCCCCC3)CC2)c1 |
| 814 | Cc1sc(NC(=O)c2ccco2)nc1-c1ccc2c(c1)NC(=O)C(C)O2 (stereo not given) |
| 1030 | Cc1ccccc1OCC(=O)N1CCCC(COCc2ccccc2)C1 (stereo not given) |
| 1040 | CCOC(=O)Cn1nc(-c2nc(-c3ccc(Cl)cc3)no2)ccc1=O |

| RP-LC retention time [s] | SMILES |
| --- | --- |
| 539 | CNc1nccc(N2CCC(CC(=O)N3CCCCCC3)CC2)n1 |
| 987 | O=C(C1CC1)N1CCc2sc(S(=O)(=O)N3CCN(c4ccccc4)CC3)cc2C1 |
| 769 | COCCCNC(=O)c1ccc(N2CCCN(Cc3ccccc3C)C2=O)cc1 |
| 772 | CCC(C)C(NC(=O)Cc1ccc(OC)cc1Cl)C(=O)Nc1nc2ccccc2[nH]1 (stereo not given) |
| 716 | COc1ccc(C(=O)N2C[C@@H]3C[C@H]2C[C@@H]3NS(=O)(=O)c2ccccc2)cn1 |
| 705 | Cc1cc(C)n2nc(SCC(=O)N(C)c3ccccc3)nc2n1 |
| 600 | O=c1[nH]cc(S(=O)(=O)NC2CCCC2)c(=O)[nH]1 |
| 545 | CCc1nnc2cc(N3CCN(Cc4ccc(OC(C)C)cc4)CC3)cnn12 |
| 570 | O=C(CCNc1cnc2cnccn12)Nc1ccc2c(c1)OCO2 |
| 661 | COCCNC(=O)C1CCN(c2cnn(Cc3ccccc3)c(=O)c2)CC1 |
| 907 | Cc1ccc(NC(=O)c2sc(C)nc2C)c(Cl)c1 |
| 1130 | CC(C)n1c(=O)oc2cc(-c3noc(-c4cc(F)ccc4F)n3)ccc21 |
| 829 | Cc1ccc(F)cc1NC(=O)Cn1nc2c(Oc3cccc(F)c3)nccn2c1=O |
| 652 | C=CCn1ccn(-c2ccc(F)c(Cl)c2)c(=O)c1=O |
| 729 | CCN1CCn2cc(S(=O)(=O)Nc3cc(C)cc(C)c3)cc2C1=O |
| 896 | CCn1ccc2oc(C)c(C(=O)N3CCN(c4cccc(Cl)c4)CC3)c2c1=O |
| 733 | Nc1c(C(=O)c2ccccc2)sc2[nH]c(=O)c(C(=O)O)cc12 |
| 1200 | O=c1c2cc(-c3ccc(F)cc3)nn2cnn1Cc1nc(-c2cccc(C(F)(F)F)c2)no1 |
| 515 | CCn1nc(C)c(CCN(C)C(=O)Cn2nc3n(c2=O)CCC(N)CC3)c1C (stereo not given) |
| 1080 | Cc1ccccc1-c1nc(-c2cccc(-c3ccn[nH]3)c2)no1 |
| 791 | CCCN(CC1CCOC1)C(=O)NCCc1ccccc1 (stereo not given) |
| 503 | CC(C)C(=O)NC(C)c1nc2ccccc2n1CC(N)=O (stereo not given) |

| RP-LC retention time [s] | SMILES |
| --- | --- |
| 708 | Cc1cc(C)cc(S(=O)(=O)N2CCC(CN3CCCCCC3)CC2)c1 |
| 826 | CCn1c(=O)c(N2CCC(NC(=O)NCc3ccccc3)CC2)nc2cccnc21 |
| 693 | Cc1ccccc1-c1nc2cnccn2c1NCCC(=O)NCc1cc(F)cc(F)c1 |
| 1110 | Cc1noc(-c2cccn2Cc2ccccc2Cl)n1 |
| 757 | O=C(NCc1ccc2c(c1)OCO2)c1ncoc1-c1ccccc1C(=O)N1CCCC1 |
| 947 | COc1ccc(Nc2ccc3c(=O)c(-c4ccccc4OC)c(C)oc3c2)cc1 |
| 808 | Cc1cccc(CNC(=O)CN2CCN(Cc3ccccc3)C2=O)c1 |
| 823 | CC(C)(C)C(O)CCNC(=O)C1(c2ccc(F)cc2)CC1 (stereo not given) |
| 620 | CN(C)CCCNC(=O)C(=O)c1c(-c2ccccc2)cc2ccccn12 |
| 780 | CCN1C(=O)Cc2cc(C(=O)N3CCN(c4ccccn4)CC3)ccc21 |
| 587 | CC(C)C(=O)Nc1ccc(N2CCN(CC(=O)N3CCCC3)CC2)cc1C(=O)O |
| 978 | CCc1cccc(C)c1Nc1c(-c2ccc(Cl)cc2)nc2ncccn12 |
| 574 | CO[C@H]1CN(C(C)C)[C@H]1C1CCN(C(=O)C2CCC2)CC1 |
| 1300 | CC(C)(C)c1ccc(OCCCC(=O)Nc2nc(-c3ccccc3)cs2)cc1 |
| 928 | Cc1cc(F)ccc1N1C(=O)CN(S(=O)(=O)c2ccccc2)CC1(C)C(=O)NC1CCCC1 (stereo not given) |
| 1260 | Clc1cccc(-c2csc(Cc3nc(-c4ccc5c(c4)OCO5)no3)n2)c1 |
| 844 | Cc1ccc2nc(NC(=O)CSc3ccc(-n4cccn4)nn3)sc2c1 |
| 838 | Cc1ccccc1Cn1c(CN2CCC(C(=O)N3CCCCCC3)CC2)cc2ccccc21 |
| 615 | COC(=O)CC1CN=C(Nc2nc(C)c3ccccc3n2)NC1=O (stereo not given) |
| 980 | O=C(c1ccsc1)N1CCCC1c1nc(CCOCC2CCCC2)no1 (stereo not given) |
| 1280 | CCOc1cccc(C(=O)Nc2nc(-c3ccc(OC)c(Br)c3)cs2)c1 |
| 1090 | Cc1ccc(-c2noc(-c3nc(-c4ccccn4)no3)n2)cc1 |

| SMILES | RP-LC retention time [s] |
| --- | --- |
| Oc1cc2c(cc1O)[C@H]1c3ccccc3CN[C@@H]1CC2 | 628 |
| CC[C@@H](CO)NC(=O)[C@@H]1C=C2c3cccc4[nH]cc(c34)C[C@H]2N(C)C1 | 616 |
